Measured values as given in PMC7324353 (European Journal of Medicinal Chemistry, 2020).
“Also recorded” adds a separate entry of the source.

How the values were obtained:
[1] = cited from earlier work
CD1 mice = assay: NAPQI detection in serum by LC-MS/MS; format: in vivo, mouse; conditions: 600 mg/kg, ip or po
HepaRG = conditions: HepaRG, 50, 100, 1000 and 5000 μM, 6 h, 12 h, 24 h
[2] = tested on: primary human hepatocytes (PHH); assay: LDH release in primary human hepatocytes; conditions: 500 or 1000 μM, 3 h, 6 h, 12 h, in comparison to ApAP
CD1 male mice [3] = assay: In vivo liver function tests and serum creatinine; parameters: species or system mouse; conditions: 600 mg/kg; for liver function tests (ALT, AST, ALP) in serum: serum after 12 h
male Sprague-Dawley rats = assay: Von Frey; format: in vivo, rat; conditions: baseline dropped to about 20 after CFA
CD1 male mice [4] = assay: Liver histology and immunohistochemistry; format: in vivo, mouse; conditions: for H&E-stained liver sections / apoptotic nuclei (TUNEL) / hepatic tight junctions (ZO-1 staining): 600 mg/kg; for H&E-stained liver sections: CD1 mice
male CD1 mice [5] = conditions: 600 mg/kg, n = 20 mice per group
[6] = tested on: primary human hepatocytes (PHH); assay: Reduced glutathione; format: cell-based; conditions: 500 or 1000 μM, 3 h, 6 h, 12 h
male CD1 mice [7] = assay: Baker's yeast-induced hyperthermia; format: in vivo, mouse; conditions: 80 mg/kg po, n = 10, 2 h after drug (6-h time point)
CYP3A4 = CYP3A4 (Homo sapiens, UniProt P08684); conditions: titration curves for 2D6 and 3A4; isozyme not given
CYP2D6 = CYP2D6 (Homo sapiens, UniProt P10635); assay: Vivid CYP450 screening assay, CYP2D6; format: biochemical
CYP2D6, sequence (P10635 whole entry): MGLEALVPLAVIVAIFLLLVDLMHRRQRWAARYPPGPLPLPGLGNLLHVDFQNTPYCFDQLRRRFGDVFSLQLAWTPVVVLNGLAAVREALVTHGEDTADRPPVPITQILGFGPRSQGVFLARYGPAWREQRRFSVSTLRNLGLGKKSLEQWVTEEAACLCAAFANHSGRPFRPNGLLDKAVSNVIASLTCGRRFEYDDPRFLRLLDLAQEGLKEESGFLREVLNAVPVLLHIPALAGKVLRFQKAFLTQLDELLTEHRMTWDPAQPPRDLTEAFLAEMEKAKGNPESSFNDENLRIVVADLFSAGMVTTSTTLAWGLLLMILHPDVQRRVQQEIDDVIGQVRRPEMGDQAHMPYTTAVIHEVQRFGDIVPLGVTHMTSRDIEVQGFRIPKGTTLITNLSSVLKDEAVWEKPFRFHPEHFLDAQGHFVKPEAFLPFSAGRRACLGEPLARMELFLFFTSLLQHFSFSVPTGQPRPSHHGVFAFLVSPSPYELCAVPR

CYP3A4, sequence (P08684 whole entry): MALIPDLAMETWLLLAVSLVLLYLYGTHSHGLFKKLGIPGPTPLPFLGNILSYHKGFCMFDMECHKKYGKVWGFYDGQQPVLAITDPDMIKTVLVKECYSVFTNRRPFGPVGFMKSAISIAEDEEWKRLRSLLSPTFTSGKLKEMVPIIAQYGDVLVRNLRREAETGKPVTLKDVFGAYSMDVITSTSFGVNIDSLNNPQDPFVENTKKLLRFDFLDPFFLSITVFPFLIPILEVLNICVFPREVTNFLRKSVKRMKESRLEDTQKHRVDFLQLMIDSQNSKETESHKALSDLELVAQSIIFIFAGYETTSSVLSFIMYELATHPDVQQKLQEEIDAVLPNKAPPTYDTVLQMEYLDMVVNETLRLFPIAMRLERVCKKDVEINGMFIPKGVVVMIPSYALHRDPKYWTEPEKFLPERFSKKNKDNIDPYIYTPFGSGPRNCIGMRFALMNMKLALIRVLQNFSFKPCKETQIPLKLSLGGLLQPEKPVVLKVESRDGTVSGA

Row | Compound | hepatotoxicity ([1]; compared with ApAP) | in vivo analgesic profile ([1]; compared with ApAP) | in vivo metabolism ([1]; into the main metabolite 2) | antipyresis ([1]; stated in abstract, no reference given) | NAPQI generation in serum (CD1 mice) | hepatotoxicity (LDH release, reduced GSH), dose and time-dependent effect (HepaRG) | LDH release [2] | liver function tests (ALT, AST, ALP) in serum (CD1 male mice [3]) | latency for withdrawal of the CFA-injected left hind foot (male Sprague-Dawley rats) | H&E-stained liver sections (CD1 male mice [4]) | apoptotic nuclei (TUNEL) (CD1 male mice [4]; mice) | hepatic tight junctions (ZO-1 staining) (CD1 male mice [4]; mice) | mice alive after 48 h (male CD1 mice [5]) [mice] | amount of reduced GSH [6] | antipyretic effect (male CD1 mice [7]) | serum creatinine (renal function) (CD1 male mice [3]) | nitrotyrosine in liver (marker of mitochondrial free radical formation) (CD1 male mice [4]; toxic dose, mice) | concentrations at which inhibition is noted (CYP3A4) [nM] | inhibitory effects on CYP2D6 (CYP2D6)
1 | O=C(CN1C(=O)c2ccccc2S1(=O)=O)Nc1ccc(O)cc1 [compound 1, N-(4-hydroxyphenyl)-2-(1,1,3-trioxo-1,2-benzothiazol-2-yl)acetamide] | considerably decreased | maintained the in vivo analgesic profile of ApAP | quickly metabolized in vivo | not antipyretic |  |  |  |  |  |  |  |  |  |  |  |  |  |  | 
2 | CNC(=O)c1ccccc1S(=O)(=O)NCC(=O)Nc1ccc(O)cc1 [3b, 2-[[2-(4-Hydroxyanilino)-2-oxo-ethyl]sulfamoyl]-N-methylbenzamide] |  |  |  |  | did not result in the formation of NAPQI | lack of hepatotoxicity | consistently decreased | marked reduction in LFTs | increased | healthy liver architecture was maintained | but not in 3b and 3r | preserved | 20 | consistently increased |  |  |  |  | 
3 | CC(=O)Nc1ccc(O)cc1 [ApAP, N-Acetyl-4-aminophenol, reference compound] |  |  |  |  | detected NAPQI generation |  |  | Increased levels; also recorded: significantly high | increased | centrilobular hepatic hemorrhagic necrosis | A large number of apoptotic nuclei | Loss of hepatic tight junctions |  |  | effectively reduced fever | moderately elevated; also recorded: significantly high | large amounts of nitrotyrosine |  | 
4 | O=C(CNS(=O)(=O)c1ccccc1C(=O)NCCc1ccc(O)c(O)c1)Nc1ccc(O)cc1 [3r, N-[2-(3,4-dihydroxyphenil)ethyl]-2-[[2-(4-hydroxyanilino)-2-oxo-ethyl]sulfamoyl] benzamide] |  |  |  |  | did not result in the formation of NAPQI | lack of hepatotoxicity | consistently decreased | marked reduction in LFTs | increased | healthy liver architecture was maintained | but not in 3b and 3r | preserved | 20 | consistently increased |  |  |  | > 1000 | only marginal inhibitory effects
